Results published in PMC11872639 (Food Chemistry: Molecular Sciences, 2025).
Where two headings read alike, the source gives them in different places.

Key:
[1] = molecular target: T1, TAS1R1-VFT (Homo sapiens, UniProt Q7RTX1); assay: Ligand binding by intrinsic tryptophan fluorescence, TAS1R1-VFT
T1 construct: followed by TAS1R1-VFT (Phe21-Ser495) or TAS1R2-VFT (Ala22-Ser493) and a second His6-tag; His6-tag (thrombin-cleavable) (N); made in house
T1 sequence (Q7RTX1 21-495): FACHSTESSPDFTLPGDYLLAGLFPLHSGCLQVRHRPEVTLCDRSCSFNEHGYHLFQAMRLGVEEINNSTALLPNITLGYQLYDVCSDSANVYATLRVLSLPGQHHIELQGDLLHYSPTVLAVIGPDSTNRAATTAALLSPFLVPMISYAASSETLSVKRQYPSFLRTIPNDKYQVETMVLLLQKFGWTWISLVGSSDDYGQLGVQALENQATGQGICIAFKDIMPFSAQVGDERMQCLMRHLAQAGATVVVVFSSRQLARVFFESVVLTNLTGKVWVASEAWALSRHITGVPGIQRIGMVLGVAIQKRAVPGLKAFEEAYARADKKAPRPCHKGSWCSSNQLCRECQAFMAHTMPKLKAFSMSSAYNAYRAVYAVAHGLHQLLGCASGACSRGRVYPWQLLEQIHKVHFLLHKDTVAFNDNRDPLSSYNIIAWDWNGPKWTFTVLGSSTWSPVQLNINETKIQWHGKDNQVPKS
Description: The intrinsic fluorescence of TAS1R-VFTs was measured using a Cary Eclipse spectrofluorometer (Varian Instruments, Palo Alto, CA, USA) equipped with a Peltier temperature control unit. […] Ligand solutions were freshly prepared in the same buffer. […] The temperature was kept constant at 20 °C. Fluorescence measurements were corrected for dilution, bleaching and nonspecific buffer quenching. Kd values and standard errors were calculated from a plot of the ratio between the fluorescence intensity variation and the maximum of fluorescence intensity variation versus concentration of total ligand, obtained with a standard non-linear regression method and using a one-site saturation ligand binding equation within SigmaPlot software (version 15.0, Grafiti, Palo Alto, CA, USA). […] The Kd values of ligand-receptor interactions were determined using the equation ΔF/ΔFmax = Bmax [L]/(Kd + [L]), where Kd is the apparent dissociation constant, ΔF is the difference between the fluorescence intensity at a given concentration of ligand and the fluorescence intensity in the absence of ligand, ΔFmax is the difference at infinite ligand concentration [L], Bmax is the maximum fluorescence signal, and [L] corresponds to the concentration of ligands. The reported Kd values are the average of six measurements performed on at least three independently refolded protein samples. […]

[2] = molecular target: T2, TAS1R3-VFT (Homo sapiens, UniProt Q7RTX0); assay: Ligand binding by intrinsic tryptophan fluorescence, TAS1R3-VFT
T2 construct: pET28-TAS1R3-VFT encodes an N-terminal His6-tag followed by TAS1R3-VFT (Ala21-Ser497) and the Strep-tag II; made in house
T2 sequence (Q7RTX0 21-497): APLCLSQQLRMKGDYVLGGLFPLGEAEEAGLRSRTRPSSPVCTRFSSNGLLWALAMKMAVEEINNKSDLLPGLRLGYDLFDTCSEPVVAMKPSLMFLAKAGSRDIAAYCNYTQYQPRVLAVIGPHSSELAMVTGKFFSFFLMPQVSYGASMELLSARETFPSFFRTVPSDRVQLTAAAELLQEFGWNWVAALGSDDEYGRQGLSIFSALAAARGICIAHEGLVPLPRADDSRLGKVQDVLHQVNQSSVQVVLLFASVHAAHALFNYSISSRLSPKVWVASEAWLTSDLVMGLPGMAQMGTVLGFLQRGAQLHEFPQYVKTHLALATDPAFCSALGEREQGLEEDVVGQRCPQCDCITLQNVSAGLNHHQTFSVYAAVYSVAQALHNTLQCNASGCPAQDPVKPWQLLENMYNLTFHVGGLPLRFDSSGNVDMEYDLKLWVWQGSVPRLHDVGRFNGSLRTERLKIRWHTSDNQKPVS
Description: The intrinsic fluorescence of TAS1R-VFTs was measured using a Cary Eclipse spectrofluorometer (Varian Instruments, Palo Alto, CA, USA) equipped with a Peltier temperature control unit. […] Ligand solutions were freshly prepared in the same buffer. […] The temperature was kept constant at 20 °C. Fluorescence measurements were corrected for dilution, bleaching and nonspecific buffer quenching. Kd values and standard errors were calculated from a plot of the ratio between the fluorescence intensity variation and the maximum of fluorescence intensity variation versus concentration of total ligand, obtained with a standard non-linear regression method and using a one-site saturation ligand binding equation within SigmaPlot software (version 15.0, Grafiti, Palo Alto, CA, USA). […] The Kd values of ligand-receptor interactions were determined using the equation ΔF/ΔFmax = Bmax [L]/(Kd + [L]), where Kd is the apparent dissociation constant, ΔF is the difference between the fluorescence intensity at a given concentration of ligand and the fluorescence intensity in the absence of ligand, ΔFmax is the difference at infinite ligand concentration [L], Bmax is the maximum fluorescence signal, and [L] corresponds to the concentration of ligands. The reported Kd values are the average of six measurements performed on at least three independently refolded protein samples. All compounds were obtained from Sigma-Aldrich. Statistical analyses: Dunnett's test (p ≤ 0.05) was used to determine the statistical significance between data means.

[3] = molecular target: T3, TAS1R2/TAS1R3 (Homo sapiens, UniProt Q7RTX0+Q8TE23); assay: Calcium mobilization assay, HEK293T-Gα16gust44 cells expressing TAS1R2/TAS1R3; format: cell-based
T3 construct: we performed functional expression of the full-length heterodimeric sweet taste TAS1R2/TAS1R3 receptor using HEK293-derived cells; expressed in transfected cells; host or cells: HEK293T-Gα16gust44 cells transfected with pcDNA6-TAS1R2 and pcDNA4-TAS1R3
T3 sequence (Q8TE23 20-839): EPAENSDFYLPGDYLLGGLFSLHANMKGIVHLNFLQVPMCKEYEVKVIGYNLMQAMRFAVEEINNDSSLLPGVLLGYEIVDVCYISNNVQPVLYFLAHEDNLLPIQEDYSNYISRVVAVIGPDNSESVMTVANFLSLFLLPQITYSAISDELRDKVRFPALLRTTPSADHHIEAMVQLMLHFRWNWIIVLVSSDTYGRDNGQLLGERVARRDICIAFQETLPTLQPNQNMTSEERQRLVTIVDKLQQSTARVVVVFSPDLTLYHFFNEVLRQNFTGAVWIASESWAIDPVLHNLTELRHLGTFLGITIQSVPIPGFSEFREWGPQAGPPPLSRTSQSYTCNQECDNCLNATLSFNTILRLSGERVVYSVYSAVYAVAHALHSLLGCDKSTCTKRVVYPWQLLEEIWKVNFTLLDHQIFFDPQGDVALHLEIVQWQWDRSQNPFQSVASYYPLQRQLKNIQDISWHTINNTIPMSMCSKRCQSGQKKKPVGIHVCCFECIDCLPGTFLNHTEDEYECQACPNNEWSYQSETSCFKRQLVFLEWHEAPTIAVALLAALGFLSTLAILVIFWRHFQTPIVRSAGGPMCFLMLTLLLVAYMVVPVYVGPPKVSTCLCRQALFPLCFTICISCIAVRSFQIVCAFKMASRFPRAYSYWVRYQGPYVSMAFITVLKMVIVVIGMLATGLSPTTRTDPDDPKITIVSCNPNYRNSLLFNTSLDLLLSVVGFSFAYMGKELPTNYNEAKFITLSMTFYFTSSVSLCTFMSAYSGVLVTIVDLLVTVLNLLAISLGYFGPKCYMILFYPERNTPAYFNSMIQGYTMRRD
T3 sequence (Q7RTX0 21-852): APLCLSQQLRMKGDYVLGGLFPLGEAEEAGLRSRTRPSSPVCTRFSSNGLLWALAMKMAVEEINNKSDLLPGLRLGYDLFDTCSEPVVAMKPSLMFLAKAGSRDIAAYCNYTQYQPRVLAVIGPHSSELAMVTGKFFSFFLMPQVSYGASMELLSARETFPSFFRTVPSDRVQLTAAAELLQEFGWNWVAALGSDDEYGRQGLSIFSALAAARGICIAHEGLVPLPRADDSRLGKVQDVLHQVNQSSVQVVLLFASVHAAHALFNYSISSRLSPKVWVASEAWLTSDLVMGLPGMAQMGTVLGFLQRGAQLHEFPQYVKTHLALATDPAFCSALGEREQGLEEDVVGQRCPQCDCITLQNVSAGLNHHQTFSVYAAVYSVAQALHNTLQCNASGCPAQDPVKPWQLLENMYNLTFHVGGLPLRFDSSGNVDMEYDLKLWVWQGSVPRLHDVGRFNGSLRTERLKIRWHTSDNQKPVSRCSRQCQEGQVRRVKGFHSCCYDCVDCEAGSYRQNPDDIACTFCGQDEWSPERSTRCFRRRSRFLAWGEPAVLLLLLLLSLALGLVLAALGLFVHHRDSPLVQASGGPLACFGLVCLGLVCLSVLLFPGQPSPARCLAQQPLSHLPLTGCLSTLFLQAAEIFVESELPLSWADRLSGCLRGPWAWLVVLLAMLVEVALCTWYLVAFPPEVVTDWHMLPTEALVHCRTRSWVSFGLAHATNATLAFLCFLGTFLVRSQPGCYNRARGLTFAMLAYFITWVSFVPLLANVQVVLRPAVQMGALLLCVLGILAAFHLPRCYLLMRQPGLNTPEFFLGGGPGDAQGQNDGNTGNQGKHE
Description: (§1) The synthetic cDNA optimized for human TAS1R2 and TAS1R3 expression was cloned into the pcDNA6-myc-HisA and pcDNA4-myc-HisA vectors, generating the pcDNA6-TAS1R2 and pcDNA4-TAS1R3 plasmids, respectively (Genewiz).
(§2) The stable HEK293T-Gα16gust44 cells were constructed by stable transfection of pcDNA3.1/Hygro-Gα16gust44 plasmid into HEK293T cells using Lipofectamine 2000 (Invitrogen). After 48 h, the cells were selected with 400 μg/mL hygromycin for 2–3 weeks. Thirty individual hygromycin-resistant colonies were expanded and screened for functional expression after transient co-transfection with pcDNA6-TAS1R2 and pcDNA4-TAS1R3 and measurement of calcium responses to sucralose. In the same way, clone selection was done under zeocin selection (250 μg/mL) to generate a stable HEK293T-Gα16gust44-TAS1R3 cell line for further calcium mobilization assays.
(§3) Forty-eight hours before the assay, HEK293T-Gα16gust44 or HEK293T-Gα16gust44-TAS1R3 cells were plated (4 × 10^4 cells/well) on poly-D-lysine-coated 96-well plates. Twenty-four hours later, cells were transiently transfected with pcDNA6-TAS1R2 and pcDNA4-TAS1R3 with Lipofectamine 2000 according to the manufacturer's instructions. As a negative control, HEK293T cells were mock-transfected with the empty expression vector. […] The fluorescence intensity was measured for 90 s after the addition of the compounds. […] All concentration-receptor combinations were measured in triplicate, and each experiment was repeated at least four times. The Ca^2+ changes are expressed as fractional changes in fluorescence light intensity: ΔF/F0 = (F—F0)/F0, where F is the fluorescence light intensity at each point and F0 is the value of emitted fluorescent light before the stimulus application. For the calculation of dose-response relationships, the changes in fluorescence upon stimulus application were averaged, mock-subtracted and baseline-corrected. The resulting dose-response data were fitted using a four-parameter logistic equation. The half-maximal effective concentrations (EC50 values) were calculated using SigmaPlot software.

[4] = molecular target: T4, TAS1R3 (Homo sapiens, UniProt Q7RTX0); assay: Calcium mobilization assay, HEK293T-Gα16gust44 cells stably expressing TAS1R3 alone; format: cell-based
T4 construct: we performed functional expression of the full-length heterodimeric sweet taste TAS1R2/TAS1R3 receptor using HEK293-derived cells; expressed in transfected cells
T4 sequence (Q7RTX0 21-852): T3 sequence (Q7RTX0 21-852)
Description: as §1, §2, §3

[5] = sweet compound alone (Fig. 3, IMP series)
[6] = sweet compound alone (Fig. 5c,d, MSG series)

N[C@H](CCC(=O)O)C(=O)O [D-Glu, D-glutamate]
impact on the fluorescence intensity of TAS1R1-VFT ([1]; negative control): no significant impact
Kd TAS1R3-VFT ([2]; ligand alone, absence of IMP, mean ± SEM, 20 °C, pH 8.0): nb
impact on the fluorescence intensity of TAS1R3-VFT ([2]; negative control): no significant impact

COc1ccc(CCC(=O)c2c(O)cc(O[C@@H]3O[C@H](CO)[C@@H](O)[C@H](O)[C@H]3O[C@@H]3O[C@@H](C)[C@H](O)[C@@H](O)[C@H]3O)cc2O)cc1O [NHDC, neohesperidine dihydrochalcone]
EC50 [3, 5]: 41 ± 29 µM

[Ca+2].[Cl-].[Cl-] [CaCl2]
EC50 ([4]; CaCl2 alone, TAS1R3 alone): 47000 ± 13000 µM
max (maximal amplitude, ΔF/F0) ([4]; CaCl2 alone, TAS1R3 alone): 0.37
max (maximal amplitude, ΔF/F0) ([4]; CaCl2 in the presence of 10 mM IMP, TAS1R3 alone): 0.17
max (maximal amplitude, ΔF/F0) ([4]; CaCl2 in the presence of 10 mM cyclamate, TAS1R3 alone): 0.14
EC50 ([3]; CaCl2 alone, TAS1R2/TAS1R3): 28000 ± 3000 µM
max (maximal amplitude, ΔF/F0) ([3]; CaCl2 alone, TAS1R2/TAS1R3): 0.40
max (maximal amplitude, ΔF/F0) ([3]; CaCl2 in the presence of 10 mM IMP, TAS1R2/TAS1R3): 0.28
max (maximal amplitude, ΔF/F0) ([3]; CaCl2 in the presence of 10 mM cyclamate, TAS1R2/TAS1R3): 0.19

C=C(C)C1CC=C(/C=N/O)CC1 (stereo in doubt) [Perillartine, perillartine]
EC50 [3, 5]: 24 ± 2 µM

COC(=O)[C@H](Cc1ccccc1)NC(=O)[C@H](CC(=O)O)NCCC(C)(C)C [Neotame, neotame]
EC50 [3, 5]: 0.97 ± 0.12 µM
EC50 ([3]; sweet compound alone (Fig. 5a,b, GMP series)): 0.3 ± 0.08 µM
EC50 [3, 6]: 1.09 ± 0.16 µM

O=S(=O)(O)NC1CCCCC1 [Cyclamate, cyclamate]
amplitude of the maximum calcium-induced response of TAS1R3 reduced to ([4]; modulator at 10 mM, CaCl2 stimulation): ~62%
EC50 [3, 5]: 2310 ± 954 µM

N[C@@H](CC(=O)O)C(=O)O [L-Asp, L-aspartate]
Kd [1]: 0.21 ± 0.06 µM
Kd ([2]; read-out: Kd TAS1R3-VFT): 1.18 ± 0.33 µM

OC[C@H]1O[C@H](O[C@]2(CCl)O[C@H](CCl)[C@@H](O)[C@@H]2O)[C@H](O)[C@@H](O)[C@H]1Cl [Sucralose, sucralose]
EC50 [3, 5]: 57 ± 13 µM
EC50 [3, 6]: 56 ± 6 µM
decrease in EC50 values by IMP (synergistic effect) ([3]; sweetener with IMP vs sweetener alone): 3 fold

N[C@@H](CCC(=O)O)C(=O)O [L-Glu, L-glutamate]
Kd [2]: 0.75 ± 0.2 µM
